In US20100204108A1, “USE OF NEUROTROPHIC FACTOR FOR RETINAL CHOLINERGIC NEURONS (NFRCN) AND CHORIONIC GONADOTROPIN-BETA (109-145) AS THERAPEUTIC AGENTS” (priority 2007, published 2010):
Ends that are not written are not given here.

What was measured:
HIV-1IIIB = conditions: positive controls
[1] = tested on: hepatitis B virus (HBV) ayw strain; test: HBV assay in HepG2-2.2.15 cells, secreted HBV DNA by TaqMan PCR; assay type: cell-based; conditions: 10 micrograms per ml, six days, HBV DNA in supernatant
HCMV strain AD169 = test: HCMV plaque formation assay in MRC-5 cells; conditions: 10 micrograms per ml, 7-10 days
HUVEC = test: Endothelial tube formation assay; assay type: cell-based, human; conditions: 10 micrograms per ml, 20 hours
Description: Positive control was vehicle only.

[2] = tested on: LPS-induced TNF-alpha production in human macrophages; test: TNF alpha production assay (LPS-stimulated macrophages, ELISA); assay type: cell-based; conditions: 10 micrograms per ml; LPS 200 ng/ml; overnight
Description: Not stimulated macrophages served as negative background control.

[3] = tested on: Th1/Th2 cytokines in spleen cells; test: Th1/Th2 cytokine profiling assay (Ovalbumin-restimulated spleen cells, CBA kit); assay type: cell-based, Balb/c mice; conditions: 10 micrograms per ml; Ovalbumin restimulation; 72 hours

| Molecule | antiviral activity of positive control compounds (HIV-1) (HIV-1IIIB) | inhibition of HBV replication as compared to the virus control infection [1] [%] | inhibition of HCMV plaque formation as compared to the virus control (HCMV strain AD169) | inhibition of the tube formation of endothelial cells (HUVEC) [%] | induction of the LPS-induced TNF-alpha production in human macrophages [2] [%] | IFNγ spleen cells; TH1 response (% of control) [3] | IL-2 spleen cells (% of control) [3] | IL-4 spleen cells; TH2 response (% of control) [3] | IL-5 spleen cells; TH2 response (% of control) [3] | TNF-a spleen cells; TH1 response (% of control) [3] |
| --- | --- | --- | --- | --- | --- | --- | --- | --- | --- | --- |
| Cc1cn([C@H]2C[C@H](N=[N+]=[N-])[C@@H](CO)O2)c(=O)[nH]c1=O [AZT] | expected levels of antiviral activity |  |  |  |  |  |  |  |  |  |
| CC(C)(C)NC(=O)[C@@H]1CN(Cc2cccnc2)CCN1C[C@@H](O)C[C@@H](Cc1ccccc1)C(=O)N[C@H]1c2ccccc2C[C@H]1O [indinavir] | expected levels of antiviral activity |  |  |  |  |  |  |  |  |  |
| Tyr-Leu-Leu-Pro-Ala-Gln-Val-Asn-Ile-Asp-OH (YLLPAQVNID-OH) [peptide 1] |  | 65.0 | did not inhibit | 25 | 18 | 135.2 % of control | 215.4 % of control | 138.4 % of control | 111.1 % of control | 165.0 % of control |
